Measured values: patent US20190233884A1 (University of Southern California, priority 2016, published 2019)

System: patients with refractory metastatic colorectal cancer (mCRC)
Test: PFS, OS and disease control in the training (evaluation) cohort of refractory mCRC patients receiving TAS-102 (n=52, Japan), by baseline characteristics, SNP genotype and toxicity
Assay type: in vivo, human
Conditions: evaluation cohort; for HR OS (95% CI) / HR PFS (95% CI): XRCC3 rs861539 G/A vs G/G (Ref.)
Method: All patients underwent the treatment in salvage-line setting. […]
Genomic DNA was extracted from peripheral whole blood in patients of all cohorts using the QIAmp Kit (Qiagen, Valencia, Calif., USA) according to the manufacturer's protocol (www.qiagen.com). The candidate SNPs were genotyped using PCR-based direct DNA sequence analysis by ABI 3100A Capillary Genetic Analyzer and Sequencing Scanner v1.0 (Applied Biosystems). Amplification of extracted DNA was carried out using both forward and reverse primers for each gene polymorphism as shown in Table 1. […] The investigators analyzing SNPs were blinded to the clinical data of the study patients.
The primary endpoint in this study was progression-free survival (PFS), and the secondary endpoints were overall survival (OS) and disease control rate (DCR). PFS was calculated from the date of starting treatment to the first observation of disease progression or death from any cause. If a patient had no disease progression or death, PFS was censored at the date of last follow up. OS was calculated from the date of starting treatment until the date of death from any cause or the date of the last follow-up, at which point OS was censored. The disease control rate (DCR) was defined as the proportion of patients who achieved a stable disease (SD) or […] according to RECISTv1.1. Chi-square test was used to examine the difference in baseline patient characteristics among the three cohorts. Allelic distribution of all SNPs by ethnicity for deviation from Hardy-Weinberg equilibrium and the allelic frequencies of SNPs were tested using the Chi-square tests with one degree of freedom. The associations between candidate SNPs and disease control, and toxicities were examined using contingency tables and Fisher's exact test. The associations of SNPs with PFS and OS were analysed using Kaplan-Meier curves and the log-rank test. Because the true mode of inheritance of candidate SNPs was not established yet, a codominant or dominant genetic model if appropriate was considered.
All patients underwent the treatment in salvage-line setting. […] In all patients, adverse events were graded according to the Common Terminology Criteria for Adverse Events, version 4.0. […]
Genomic DNA was extracted from peripheral whole blood in patients of all cohorts using the QIAmp Kit (Qiagen, Valencia, Calif., USA) according to the manufacturer's protocol (www.qiagen.com). The candidate SNPs were tested using PCR-based direct DNA sequence analysis by ABI 3100A Capillary Genetic Analyzer and Sequencing Scanner v1.0 (Applied Biosystems). […] The investigators analyzing SNPs were blinded to the clinical data.
The primary endpoint in this study was progression-free survival (PFS), and the secondary endpoints were overall survival (OS) and disease control rate (DCR).

[1] = Adjuvant history No vs Yes, univariate
[2] = Histology Mod-por vs well, univariate
[3] = KRAS Mutant vs Wild type, univariate
[4] = LN metastasis No vs Yes, univariate
[5] = Liver metastasis No vs Yes, univariate
[6] = Lung metastasis No vs Yes, univariate
[7] = Number of metastases >2 vs ≤2, univariate

Trifluridine/tipiracil [TAS-102]
PD, patients n (%) (Pin1 rs2233679 T/T): 4 (57%) | Disease Control Rate SD, patients n (%) (RAD51 rs1801320 G/C): 3 (43%) | PD, patients n (%) (RAD51 rs1801320 G/C): 4 (57%) | Disease Control Rate SD, patients n (%) (RAD51 rs1801320 G/G): 12 (31%) | PD, patients n (%) (RAD51 rs1801320 G/G): 27 (69%) | Disease Control CR/PR/SD, patients n (%) (XRCC3 rs861539 G/A): 7 (44%) | Median PFS (95% CI) (XRCC3 rs861539 G/A): 3.8 (1.6, 6.6) months | OS (XRCC3 rs861539 G/A): 15.6 months | PD, patients n (%) (XRCC3 rs861539 G/A): 9 (56%) | HR OS (95% CI) (multivariable): 0.31 (0.09, 1.03) | HR PFS (95% CI) (multivariable): 0.52 (0.24, 1.11) | HR OS (95% CI) (univariate): 0.25 (0.08, 0.79) | HR PFS (95% CI) (univariate): 0.44 (0.21, 0.92) | Disease Control CR/PR/SD, patients n (%) (XRCC3 rs861539 G/G): 8 (27%) | Median OS (95% CI) (XRCC3 rs861539 G/G): 6.3 (4.9, 12.4+) months | Median PFS (95% CI) (XRCC3 rs861539 G/G): 2.3 (1.9, 3.3) months | OS (XRCC3 rs861539 G/G): 6.3 months | PD, patients n (%) (XRCC3 rs861539 G/G): 22 (73%) | Disease Control Rate SD, patients n (%) (p21 rs1059234 Any C): 10 (29%) | PD, patients n (%) (p21 rs1059234 Any C): 25 (71%) | Disease Control Rate SD, patients n (%) (p21 rs1059234 C/C): 4 (31%) | PD, patients n (%) (p21 rs1059234 C/C): 9 (69%) | Disease Control Rate SD, patients n (%) (p21 rs1059234 T/C): 6 (27%) | PD, patients n (%) (p21 rs1059234 T/C): 16 (73%) | Disease Control Rate SD, patients n (%) (p21 rs1059234 T/T): 5 (45%) | PD, patients n (%) (p21 rs1059234 T/T): 6 (55%) | Disease Control Rate SD, patients n (%) (p21 rs1801270 A/A): 4 (31%) | PD, patients n (%) (p21 rs1801270 A/A): 9 (69%) | Disease Control Rate SD, patients n (%) (p21 rs1801270 A/C): 6 (29%) | PD, patients n (%) (p21 rs1801270 A/C): 15 (71%) | Disease Control Rate SD, patients n (%) (p21 rs1801270 Any C): 11 (33%) | PD, patients n (%) (p21 rs1801270 Any C): 22 (67%) | Disease Control Rate SD, patients n (%) (p21 rs1801270 C/C): 5 (42%) | PD, patients n (%) (p21 rs1801270 C/C): 7 (58%) | Disease Control Rate SD, patients n (%) (p53 rs1042522 Any G): 9 (35%) | PD, patients n (%) (p53 rs1042522 Any G): 17 (65%) | Disease Control Rate SD, patients n (%) (p53 rs1042522 C/C): 6 (30%) | PD, patients n (%) (p53 rs1042522 C/C): 14 (70%) | Disease Control Rate SD, patients n (%) (p53 rs1042522 G/G): 2 (33%) | PD, patients n (%) (p53 rs1042522 G/G): 4 (67%) | HR for OS (ATM rs609429, multivariable adjusted for liver metastases and adjuvant history): 0.24 | HR for OS (ATM rs609429 any G vs C/C, univariate): 0.37 | Overall Survival Median, months (Adjuvant history No): 6.3 months | Progression-Free Survival Median, months (Adjuvant history No): 2.1 months | Overall Survival HR [1]: 2.44 | Progression-Free Survival HR [1]: 1.90 | Overall Survival Median, months (Adjuvant history Yes): 8.7 months | Progression-Free Survival Median, months (Adjuvant history Yes): 3.7 months | Overall Survival Median, months (Age <61): 8.1 months | Progression-Free Survival Median, months (Age <61): 2.2 months | Overall Survival Median, months (Age ≥61): 6.3 months | Progression-Free Survival Median, months (Age ≥61): 3.0 months | Overall Survival HR (Age ≥61 vs <61, univariate): 1.30 | Progression-Free Survival HR (Age ≥61 vs <61, univariate): 0.81 | PFS (CHEK2 rs2267130 any C allele): 3.4 months | HR for PFS (CHEK2 rs2267130 any C vs T/T, univariate): 0.48 | Overall Survival Median, months (Histology Mod-por): 8.7 months | Progression-Free Survival Median, months (Histology Mod-por): 3.0 months | Overall Survival HR [2]: 0.52 | Progression-Free Survival HR [2]: 0.94 | Overall Survival Median, months (Histology well): 6.3 months | Progression-Free Survival Median, months (Histology well): 2.1 months | Overall Survival Median, months (KRAS Mutant): 8.3 months | Progression-Free Survival Median, months (KRAS Mutant): 3.3 months | Overall Survival HR [3]: 0.42 | Progression-Free Survival HR [3]: 0.51 | Overall Survival Median, months (KRAS Wild type): 7.2 months | Progression-Free Survival Median, months (KRAS Wild type): 2.1 months | Overall Survival Median, months (LN metastasis No): 7.2 months | Progression-Free Survival Median, months (LN metastasis No): 2.5 months | Overall Survival HR [4]: 1.06 | Progression-Free Survival HR [4]: 1.27 | Overall Survival Median, months (LN metastasis Yes): 8.3 months | Progression-Free Survival Median, months (LN metastasis Yes): 3.0 months | Overall Survival Median, months (Liver metastasis No): 8.7 months | Progression-Free Survival Median, months (Liver metastasis No): 4.2 months | Overall Survival HR [5]: 0.57 | Progression-Free Survival HR [5]: 0.43 | Overall Survival Median, months (Liver metastasis Yes): 7.2 months | Progression-Free Survival Median, months (Liver metastasis Yes): 2.3 months | Overall Survival Median, months (Lung metastasis No): 6.3 months | Progression-Free Survival Median, months (Lung metastasis No): 2.5 months | Overall Survival HR [6]: 1.44 | Progression-Free Survival HR [6]: 1.19 | Overall Survival Median, months (Lung metastasis Yes): 8.3 months | Progression-Free Survival Median, months (Lung metastasis Yes): 2.9 months | Overall Survival Median, months (Number of metastases >2): 8.1 months | Progression-Free Survival Median, months (Number of metastases >2): 2.9 months | Overall Survival HR [7]: 1.63 | Progression-Free Survival HR [7]: 1.22
